We go through one compound from patent US20250319640A1, “ACTIVE AND/OR INTELLIGENT PACKAGING MATERIALS CONTAINING RADICAL SCAVENGING LIGANDS” (CORNELL UNIVERSITY, priority 2022, published 2025).

The structures appear in SMILES notation.

For data set [1] the following is noted: cited from earlier work.
For data set [2] the following is noted: printed as pH 7.8; cited from earlier work.
Data set [3] concerns E. coli. The note with it: against E. coli, previous studies; cited from earlier work.
Data set [4] relates to L. monocytogenes FSL C1-0053. Put plainly: Bacterial growth inhibition assay (modified JIS Z2801: 2000). Type of data set: cell-based. The source says: (§1) The Japanese Industrial Standard (JIS) Z2801: 2000 method was slightly modified to analyze antibacterial activity of treated films against food-borne pathogenic bacteria (Association JS., “Antimicrobial products: Test for Antimicrobial Activity and Efficacy,” Japanese Industrial Standard JIS Z 2801 (2000), which is hereby incorporated by reference its entirety). Briefly, a culture of E. coli ATCC strain no. 25922 and a culture of L. monocytogenes from a food isolate were stored in 20% glycerol at −80° C. until use. The L. monocytogenes strain was obtained from the Cornell Food Safety Laboratory Bacterial Strains Collection as FSL C1-0053 and originally isolated from a finished ready-to-eat dairy food product. The cultures were streaked on tryptic soy agar (TSA) and incubated at 37° C. for E. coli and 30° C. L. monocytogenes for 24 hours. An isolated colony from each plate was used to inoculate 12 mL of tryptic soy broth (TSB), which was incubated with shaking for 24 hours at 37° C. A 100 μL aliquot of each culture was used to inoculate 50 mL TSB, which was incubated with shaking for 24 hours at 37° C. to achieve a cell density of 10^9 CFU/mL, which was confirmed by plate count on TSA. Each culture was diluted to reach a starting concentration of 10^5 CFU/mL, also confirmed by plate count on TSA. Treated films were cut into 5×5 cm^2 squares and stored in sterile conditions after the ethanol wash described in the synthesis step. A 0.4 mL aliquot of each 10^5 CFU/mL culture was placed on the treated films and covered with a 4×4 cm^2 sterile PP film to create a sandwich. The PP cover was lightly pressed down with sterile tweezers to distribute the inoculum across the treated film and the sandwich was placed in a Petri dish. The Petri dish was placed in an airtight box containing paper towels saturated with 100 mL of filtered water to maintain a humid environment. The entire apparatus was incubated at 37° C. for 24 hours. After incubation, 10 mL of phosphate buffered saline (PBS, pH 7.4) solution was pipetted into each Petri dish and well mixed to disassemble the sandwich and dilute the inoculated broth. An aliquot was taken from each Petri dish and serially diluted with PBS buffer. A 100 μL aliquot of the appropriate dilution was plated in duplicate on TSA and incubated for 24 hours at 37° C. Plates with 30-300 CFU were counted, and the average plate count of the duplicate plates was recorded. Plate counts for treated films were subtracted from the average plate count of the control to determine inhibition of bacterial growth. The assay was performed on triplicate coupons from two independently extruded batches, totaling 6 replicates per treatment.
(§2) To determine the antimicrobial performance of free curcumin, the assay was repeated with curcumin powder added to the starting inoculum. Curcumin powder was first completely dissolved in ethanol to prepare 2 mg/mL and 0.2 mg/mL stock solutions. Stock solutions were diluted 10× in TSB to final concentrations of 200 μg/mL and 20 μg/mL curcumin, which was then inoculated to a 10^5 CFU/mL starting concentration of either E. coli or L. monocytogenes, confirmed by plate count. The procedure was repeated by replacing the curcumin stock solutions with absolute ethanol (10% v/v in TSB) to quantify any growth inhibition due to ethanol. […]

For data set [5], the system named is E. coli ATCC strain no. 25922. Described as above. Type of data set: cell-based.
Description: as §1, §2

Turning to `COc1cc(/C=C/C(=O)CC(=O)/C=C/c2ccc(O)c(OC)c2)ccc1O` [curcumin], the water solubility entry in data set [1] is reported as “low”. The “pKa of the enolic hydrogen” value in data set [2] was 7.8. The “minimum inhibitory concentration (MIC)” value in data set [3] is 100 to 200 µg/mL. Also, the “antibacterial function of free curcumin” value in data set [4] (20 μg/mL curcumin in TSB, L. monocytogenes) is recorded as “did not display any antibacterial function”; in data set [5] (20 μg/mL curcumin in TSB), “did not display any antibacterial function”. In addition, in data set [4] (200 μg/mL curcumin, partially fell out of solution in TSB), the “inhibition of L. monocytogenes by free curcumin” value was 1.63±0.83 log (CFU/mL). The “inhibition of bacterial growth compared to control” value in data set [4] (L. monocytogenes, 10^5 CFU/mL inoculum, 37° C., 24 hours) is on record as “poor bacterial inhibition”; in data set [5] (10^5 CFU/mL inoculum, 37° C., 24 hours), “poor bacterial inhibition”.
